Reference: publication PMC6728334 (Scientific Reports, 2019)
“Also recorded” adds a separate entry of the source. Where two headings read alike, the source gives them in different places.

What was measured:
[1] = system: PCNA ubiquitination (RFC, Uba1, Rad6, Rad18, PCNA, ubiquitin); assay: Reconstituted PCNA ubiquitination cascade, Western blot quantitation; type: biochemical, human
Experimental: The PCNA loading and ubiquitination cascade was reconstituted in 96-well white round-bottom polypropylene plates (Greiner) in a buffer consisting of 40 mM Tris-HCl, pH 7.5, 8 mM MgCl2, and 10% glycerol with 2.5 nM nicked circular pUC19, 50 nM RFC, 50 nM Uba1, 250 nM Rad6–Rad18 dimer, 50 nM FLAG-PCNA, and 250 nM biotin-ubiquitin (final concentrations). Compounds were added to the samples, with preincubation for 15 min at 25 °C before addition of ATP to a final concentration of 2 mM (to initiate the reaction cascade), followed by incubation for 2 h at 25 °C. The reactions were then terminated by addition of EDTA to 20 mM for Alpha assays or Laemmli sample buffer for Western blot analyses. For Alpha assays, reaction mixtures were diluted in buffer containing streptavidin-conjugated donor beads and anti-FLAG antibody-conjugated acceptor beads in opaque white microplates under low-light conditions, as recommended by the Alpha bead manufacturer, PerkinElmer. The plates were read on a Tecan Spark microplate reader at 23 °C. For Western blot analyses, FLAG-PCNA was detected with anti-FLAG antibody, and quantitations from the Western blot images was performed with NIH ImageJ software[74] and then analyzed with GraphPad Prism software.

Uba1 [2] = molecular target: T1, Uba1 (Homo sapiens, UniProt P22314); assay: Uba1~ubiquitin thioester formation (Uba1, GST-ubiquitin, ATP; silver-stained gels); type: biochemical
T1 construct: His; host or cells: E. coli BL21(DE3)
T1 sequence (P22314 1-1058): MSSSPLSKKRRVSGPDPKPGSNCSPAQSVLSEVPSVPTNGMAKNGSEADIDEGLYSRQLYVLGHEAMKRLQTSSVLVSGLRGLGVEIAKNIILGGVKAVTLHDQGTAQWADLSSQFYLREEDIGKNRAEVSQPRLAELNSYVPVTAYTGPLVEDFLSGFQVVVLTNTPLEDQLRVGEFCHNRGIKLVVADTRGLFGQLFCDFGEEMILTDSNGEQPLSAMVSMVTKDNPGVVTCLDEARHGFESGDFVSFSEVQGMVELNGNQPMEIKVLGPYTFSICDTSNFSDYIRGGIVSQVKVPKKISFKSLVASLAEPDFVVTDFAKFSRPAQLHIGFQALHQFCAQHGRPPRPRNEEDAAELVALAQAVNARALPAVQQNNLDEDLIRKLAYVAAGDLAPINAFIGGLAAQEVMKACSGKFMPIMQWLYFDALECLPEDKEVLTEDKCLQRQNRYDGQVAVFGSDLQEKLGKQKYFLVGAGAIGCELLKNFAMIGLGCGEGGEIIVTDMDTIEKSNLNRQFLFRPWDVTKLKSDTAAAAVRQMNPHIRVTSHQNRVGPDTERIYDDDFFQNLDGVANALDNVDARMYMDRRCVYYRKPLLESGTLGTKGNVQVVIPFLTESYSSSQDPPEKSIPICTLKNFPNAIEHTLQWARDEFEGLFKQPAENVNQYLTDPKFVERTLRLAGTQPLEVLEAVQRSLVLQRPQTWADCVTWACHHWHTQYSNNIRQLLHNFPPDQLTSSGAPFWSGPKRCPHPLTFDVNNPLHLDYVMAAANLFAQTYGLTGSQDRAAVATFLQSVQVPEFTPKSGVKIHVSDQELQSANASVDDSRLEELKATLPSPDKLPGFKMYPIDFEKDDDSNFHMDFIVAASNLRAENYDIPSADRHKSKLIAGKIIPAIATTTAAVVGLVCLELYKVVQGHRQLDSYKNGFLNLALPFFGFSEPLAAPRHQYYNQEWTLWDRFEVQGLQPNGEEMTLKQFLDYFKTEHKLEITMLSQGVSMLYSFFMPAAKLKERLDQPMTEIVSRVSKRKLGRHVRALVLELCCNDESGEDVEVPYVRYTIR

HEK 293FT cells [3] = assay: Cell survival, Alamar Blue (resazurin) assay; type: cell-based, human; conditions: 24-h treatment; for IC50: 2% DMSO, read-out: IC50 for inhibition of cell survival
Experimental: For cellular experiments, HEK 293FT cells (a fast-growing SV40 large T antigen-transformed strain of HEK 293 cells designed for enhanced transgene expression in transient transfections) were grown in growth medium consisting of Dulbecco’s modified Eagle’s medium (DMEM; Sigma-Aldrich), supplemented with 10% fetal bovine serum (FBS; Gibco) in a humified cell culture incubator at 37 °C with 5% CO2.
(§1) HEK 293FT cells were evaluated for survival following compound treatments by the Alamar Blue (resazurin) assay. Cells were plated onto 96-well plates at 4.8 × 10^4 cells/well in 0.5% FBS-containing DMEM at 37 °C and 5% CO2. After 24 h, compounds were added. After 24-h treatment, resazurin was added to a final concentration of 0.12 mM. Following 4-h incubation, conversion to the resorufin product was measured (with excitation at 542 nm and emission at 590 nm) on a fluorescence plate reader.

[4] = system: Uba1-overexpressing HEK 293 cells; assay: Cell survival in Uba1-overexpressing cells vs empty vector-transfected control cells; type: cell-based, human; conditions: 24-h treatment at IC50 of each compound (Myr 3 mM, DM 650 μM; puromycin 1 and 2 μM)
Experimental: as §1
(§2) HEK 293FT cells (1.5 × 10^6) were plated onto 6-cm plates in 5 ml of DMEM with 10% FBS and allowed to grow for 24 h at 37 °C and 5% CO2. For transfections, 6 μg of plasmid DNA (empty vector containing FLAG-tag sequence only, FLAG-Uba1, or FLAG-ubiquitin) and 10 μl of Lipofectamine 2000 were used for each plate. The DNA and the reagent were diluted separately in 500 μl of Opti-MEM (Gibco), and each was mixed by vortexing. After 5-min incubation, the two tubes were combined and incubated for another 20 min. Prior to adding the transfection solution to the cells, the medium was replaced with 4 ml of Opti-MEM. The transfection solution was then added dropwise. After 3-h incubation, the medium was changed to 0.5% FBS-containing DMEM, and the cells were plated for cell survival experiments, as above.

[5] = system: ubiquitin-overexpressing HEK 293 cells; assay: Cell survival in ubiquitin-overexpressing cells vs empty vector-transfected control cells; type: cell-based, human; conditions: 24-h treatment at IC50 of each compound (Myr 3 mM, DM 650 μM; puromycin 1 and 2 μM)
Experimental: as §1, §2

Rad6 = molecular target: T2, Rad6 (Homo sapiens, UniProt P63146); assay: Rad6~ubiquitin thioester formation by transfer from already formed Uba1~ubiquitin; type: biochemical; conditions: Rad6 preincubated with compound 15 min; 2% DMSO
T2 construct: FLAG; made in house
T2 sequence (P63146 whole entry): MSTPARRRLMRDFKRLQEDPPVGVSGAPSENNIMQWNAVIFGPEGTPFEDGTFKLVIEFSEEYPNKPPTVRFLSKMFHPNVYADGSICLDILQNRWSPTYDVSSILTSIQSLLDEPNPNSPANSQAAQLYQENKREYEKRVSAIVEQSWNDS
Experimental: The overall reaction was conducted in two separate steps: initial reaction of Uba1 with ubiquitin in the absence of compound, then mixing with Rad6 with compound to evaluate transfer of ubiquitin from already formed Uba1~ubiquitin to Rad6. The first reaction was conducted with 300 nM Uba1, 1 μM GST-ubiquitin, and 2 mM ATP in a buffer of 40 mM Tris-HCl, pH 7.5, 8 mM MgCl2, and 10% glycerol for 30 min at 25 °C to allow for charging of Uba1 with GST-ubiquitin incubations. […] The samples were then subjected to SDS-polyacrylamide gel electrophoresis under non-reducing conditions, silver staining, and quantitation of scanned images, as described above for the silver-staining-based Uba1~ubiquitin thioester formation assay.

HEK 293FT cells [6] = assay: Cellular global ubiquitination with MG132, anti-ubiquitin Western blot; type: cell-based, human; conditions: EGCG 250 and 500 μM, 1 h total; MG132 50 μM for 30 min
Experimental: HEK 293FT cells were plated in 6-well plates at 8 × 10^5 cells/well in DMEM with 0.5% FBS. […] Cells were harvested, and whole-cell lysates were prepared in RIPA lysis buffer containing protease inhibitor cocktail ([…] from Sigma-Aldrich) and sonicated. Equivalent loadings of total protein for each treatment, as determined by Bradford assay of each extract sample, were subjected to electrophoresis on 8% SDS-polyacrylamide gels and Western blot analysis, probed with anti-ubiquitin antibody, then stripped and reprobed with anti-β-tubulin antibody.

Uba1 [7] = molecular target: T1, Uba1; assay: Reversibility: Uba1 preincubation, washout by centrifugal filtration, then PCNA ubiquitination; type: biochemical; conditions: 30 μM compound preincubated with Uba1 for 2 h, then washed out
Experimental: Samples were then transferred to YM-30 Microcon centrifugal concentrators (Merck Millipore), diluted in buffer (40 mM Tris-HCl, pH 7.5, 8 mM MgCl2, and 10% glycerol), then serially centrifuged with additions of buffer to the remaining retentate between each spin, for final dilutions of compounds to <0.05% of original concentrations. The resulting samples were then tested in PCNA ubiquitination reactions.

O=C(O[C@@H]1Cc2c(O)cc(O)cc2O[C@@H]1c1cc(O)c(O)c(O)c1)c1cc(O)c(O)c(O)c1 [EGCG, (–)-Epigallocatechin-3-gallate]
IC50 ([1]; 15 min preincubation, 2 h with ATP, 2% DMSO, nonlinear regression, read-out: IC50 for inhibition of PCNA ubiquitination): 0.228 µM
Activity in the PCNA ubiquitination assay (in words) ([1]; up to 500 μM): inhibitory
Uba1~ubiquitin thioester formation, Uba1 alone preincubated with compound before ubiquitin and ATP (Uba1 [2]; EGCG 10 μM, Myr 50 μM): complete inhibition
Uba1~ubiquitin thioester formation, ubiquitin alone preincubated with compound before Uba1 and ATP (Uba1 [2]; EGCG 10 μM, Myr 50 μM): did not
Activity in the Uba1~ubiquitin thioester formation assay (in words) (Uba1 [2]; up to 500 μM): inhibitory
Activity on cell viability / survival (in words) (HEK 293FT cells [3]): reduces the viability and growth; also recorded: inhibitory
IC50 (HEK 293FT cells [3]): 220 µM
IC50 (HEK 293FT cells [3]; Homo sapiens, HEK293FT, 24 h): 220 µM
Effect of Uba1 overexpression on cell survival [4]: reduced sensitivity; also recorded: Protects
Effect of ubiquitin overexpression on cell survival [5]: reduced sensitivity; also recorded: Protects
Formation of the Rad6~ubiquitin thioester conjugate (Rad6): does not inhibit
Accumulation of ubiquitin-conjugated protein species in response to MG132 (global cellular ubiquitination) (HEK 293FT cells [6]): inhibited
Reversibility of inhibition of Uba1 and PCNA ubiquitination after washout (Uba1 [7]): reversible
